The results in this text go back to publication PMC12311865, “In Vitro Evaluation of the Potential Interactions of Zearalenone-14-sulfate and Zearalenone-14-glucuronide with Human Cytochrome P450 Enzymes, Organic Anion Transporting Polypeptides, and ATP-Binding Cassette Multidrug Transporters” (ACS Omega, 2025).

Where only a bound is given, the exact number is not on record here.

The target in data set [1] is T1, BCRP (Homo sapiens, UniProt Q9UNQ0).
T1 construct: made in house; host or cells: Sf9 insect cells (baculovirus)
T1 sequence (Q9UNQ0 1-655): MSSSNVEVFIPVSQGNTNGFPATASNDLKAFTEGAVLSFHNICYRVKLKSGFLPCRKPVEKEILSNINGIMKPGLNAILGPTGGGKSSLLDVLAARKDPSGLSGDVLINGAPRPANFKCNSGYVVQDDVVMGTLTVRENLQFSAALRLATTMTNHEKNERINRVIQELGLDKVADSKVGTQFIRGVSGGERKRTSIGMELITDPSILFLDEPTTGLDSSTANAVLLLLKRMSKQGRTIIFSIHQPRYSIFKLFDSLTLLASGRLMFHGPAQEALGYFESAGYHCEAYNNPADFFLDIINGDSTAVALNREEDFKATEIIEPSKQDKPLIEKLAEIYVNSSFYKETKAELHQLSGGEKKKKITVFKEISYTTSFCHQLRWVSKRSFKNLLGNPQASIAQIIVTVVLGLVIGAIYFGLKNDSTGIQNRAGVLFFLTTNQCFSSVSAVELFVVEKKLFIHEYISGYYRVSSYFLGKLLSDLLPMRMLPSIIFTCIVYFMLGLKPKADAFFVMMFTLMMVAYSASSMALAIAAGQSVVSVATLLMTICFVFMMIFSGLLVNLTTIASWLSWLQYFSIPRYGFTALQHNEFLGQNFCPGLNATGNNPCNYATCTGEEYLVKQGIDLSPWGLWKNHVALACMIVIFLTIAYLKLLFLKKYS
The data set is described as follows: BCRP-mediated LY vesicular transport (Sf9 membrane vesicles). Format: biochemical. Conditions: for inhibition at 10 min, 50 μM: human, read-out: inhibition of BCRP-driven vesicular uptake of LY. As to the method:
Experiments were performed in insect membrane vesicles, as described previously. Briefly, human MDR1, BCRP, and MRP2 were expressed in Sf9 insect cells by baculoviruses. On the third day of infection, cells were collected and membrane vesicles were obtained by mechanical disruption and differential centrifugation. To get full activity for BCRP, the cholesterol levels of the vesicles were adjusted to the level of mammalian membranes. Vesicles were stored at −80 °C, and the total protein content of the preparations was measured by the Lowry method (used as a reference for the quantity). Membrane vesicles (50 μg protein/sample) were incubated at 37 °C for 10 min (without or with 4 mM Mg-ATP) in 50 μL volume in the presence of transporter-specific fluorescent substrates: N-methylquinidine (NMQ; 5 μM) for MDR1, lucifer yellow (LY; 10 μM) for BCRP, and 5(6)-carboxy-2′,7′-dichlorofluorescein (CDCF; 5 μM) for MRP2. […] ATP-dependent (4 mM) uptake of fluorescent substrates was examined in the presence of 0–50 μM concentrations of mycotoxins (ZEN, Z14S, or Z14GA). […] After incubation, samples were rapidly filtered and washed on a filter plate (MSFBN6B10; Millipore, Burlington, MA). Accumulated substrates in vesicles were solved back from the filter with 100 μL of SDS (10%) and centrifuged into another plate. A 100 μL volume of fluorescence stabilizer was added to the samples (DMSO for LY, 0.1 M H2SO4 for NMQ, and 0.1 M NaOH for CDCF). Fluorescence of samples was measured by plate readers (Victor X3 and Enspire PerkinElmer; Waltham, MA) at appropriate wavelengths (filters in the Victor X3 reader were 405/535 nm for LY and 492/635 nm for CDCF; while in the Enspire reader, NMQ was measured at 360/430 nm excitation/emission wavelengths). ABC-related transport was calculated by subtracting passive uptake measured without Mg-ATP from values measured in the presence of Mg-ATP.

Another data set deals with T2, human MRP2 (Homo sapiens, UniProt Q92887).
T2 construct: made in house; host or cells: Sf9 insect cells (baculovirus)
T2 sequence (Q92887 whole entry): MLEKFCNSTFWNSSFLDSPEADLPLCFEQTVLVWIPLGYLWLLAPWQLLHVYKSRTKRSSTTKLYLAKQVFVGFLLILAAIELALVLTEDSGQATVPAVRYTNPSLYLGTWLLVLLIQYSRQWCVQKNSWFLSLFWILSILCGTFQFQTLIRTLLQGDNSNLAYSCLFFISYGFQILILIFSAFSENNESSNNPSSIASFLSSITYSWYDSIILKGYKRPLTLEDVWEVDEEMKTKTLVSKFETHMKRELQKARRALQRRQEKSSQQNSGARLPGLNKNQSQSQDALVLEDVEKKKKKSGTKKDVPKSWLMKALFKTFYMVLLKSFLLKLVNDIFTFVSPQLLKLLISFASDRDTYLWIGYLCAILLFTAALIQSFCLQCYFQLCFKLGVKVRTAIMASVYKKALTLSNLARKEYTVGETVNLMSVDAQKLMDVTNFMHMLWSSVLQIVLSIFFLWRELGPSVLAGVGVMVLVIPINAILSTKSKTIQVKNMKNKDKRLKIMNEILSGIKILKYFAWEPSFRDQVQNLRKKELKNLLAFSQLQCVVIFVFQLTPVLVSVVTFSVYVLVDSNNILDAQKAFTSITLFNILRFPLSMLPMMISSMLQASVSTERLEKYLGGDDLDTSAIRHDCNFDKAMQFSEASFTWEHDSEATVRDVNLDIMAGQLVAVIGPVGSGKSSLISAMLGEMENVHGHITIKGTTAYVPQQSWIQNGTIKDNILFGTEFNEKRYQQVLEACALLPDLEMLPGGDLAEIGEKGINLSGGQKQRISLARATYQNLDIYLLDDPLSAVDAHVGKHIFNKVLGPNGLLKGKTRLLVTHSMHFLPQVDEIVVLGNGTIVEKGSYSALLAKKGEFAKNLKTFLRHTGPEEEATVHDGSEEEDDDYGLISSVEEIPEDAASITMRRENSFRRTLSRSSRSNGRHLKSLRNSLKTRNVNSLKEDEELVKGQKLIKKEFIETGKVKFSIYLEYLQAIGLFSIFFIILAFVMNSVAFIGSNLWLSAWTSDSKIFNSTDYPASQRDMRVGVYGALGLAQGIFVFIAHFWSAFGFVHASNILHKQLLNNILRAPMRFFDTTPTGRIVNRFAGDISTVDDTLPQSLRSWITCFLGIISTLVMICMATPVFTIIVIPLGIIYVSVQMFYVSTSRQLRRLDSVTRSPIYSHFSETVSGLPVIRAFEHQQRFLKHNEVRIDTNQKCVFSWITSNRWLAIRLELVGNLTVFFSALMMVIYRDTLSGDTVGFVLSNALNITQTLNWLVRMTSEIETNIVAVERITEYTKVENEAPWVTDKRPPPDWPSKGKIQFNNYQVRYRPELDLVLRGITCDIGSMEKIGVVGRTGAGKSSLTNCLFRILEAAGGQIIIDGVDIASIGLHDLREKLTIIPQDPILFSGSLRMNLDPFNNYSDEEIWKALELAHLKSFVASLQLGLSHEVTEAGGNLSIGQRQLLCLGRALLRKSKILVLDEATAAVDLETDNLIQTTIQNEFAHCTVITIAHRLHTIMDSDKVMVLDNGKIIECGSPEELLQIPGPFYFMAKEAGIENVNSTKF
Kind of data set: biochemical. It counts as biochemical. The note with it: CDCF 5 μM. The method, then: Experiments were performed in insect membrane vesicles, as described previously. Briefly, human MDR1, BCRP, and MRP2 were expressed in Sf9 insect cells by baculoviruses. On the third day of infection, cells were collected and membrane vesicles were obtained by mechanical disruption and differential centrifugation. To get full activity for BCRP, the cholesterol levels of the vesicles were adjusted to the level of mammalian membranes. Vesicles were stored at −80 °C, and the total protein content of the preparations was measured by the Lowry method (used as a reference for the quantity). […] A 100 μL volume of fluorescence stabilizer was added to the samples (DMSO for LY, 0.1 M H2SO4 for NMQ, and 0.1 M NaOH for CDCF). Fluorescence of samples was measured by plate readers (Victor X3 and Enspire PerkinElmer; Waltham, MA) at appropriate wavelengths (filters in the Victor X3 reader were 405/535 nm for LY and 492/635 nm for CDCF; while in the Enspire reader, NMQ was measured at 360/430 nm excitation/emission wavelengths). ABC-related transport was calculated by subtracting passive uptake measured without Mg-ATP from values measured in the presence of Mg-ATP.

Another data set concerns the target T3, MDR1 (Homo sapiens, UniProt P08183).
T3 construct: made in house; host or cells: Sf9 insect cells (baculovirus)
Kind of data set: MDR1 vanadate-sensitive ATPase activity assay. Format: biochemical. Conditions: up to 50 μM; Sf9 membrane vesicles. As to the method:
(§1) ATPase activity was determined in Sf9 membrane vesicles containing human MDR1 or human BCRP prepared as described. − Appropriate amounts of vesicles (10 μg/50 μL) were used in the assays. Membrane vesicles were incubated with Mg-ATP (3 mM) for 25 min at 37 °C. Effects of the test compounds were examined up to 50 μM concentrations. […] ABC transporter function was determined as vanadate-sensitive ATPase activity. Liberated inorganic phosphate (Pi) was measured by a colorimetric reaction, as it has been reported. After 25 min, absorbance values were determined at 660 nm by a VictorX plate reader (PerkinElmer).

Data set [2] deals with T1, BCRP. The data set is described as follows: BCRP vanadate-sensitive ATPase activity assay. It counts as biochemical. The note with it: for effect on BCRP-dependent ATPase activity: up to 50 μM, Z14S effect seen even at 2 μM. As to the method: as §1
Another data set has as its target T4, CYP1A2 (Homo sapiens, UniProt P05177).
T4 sequence (P05177 1-516): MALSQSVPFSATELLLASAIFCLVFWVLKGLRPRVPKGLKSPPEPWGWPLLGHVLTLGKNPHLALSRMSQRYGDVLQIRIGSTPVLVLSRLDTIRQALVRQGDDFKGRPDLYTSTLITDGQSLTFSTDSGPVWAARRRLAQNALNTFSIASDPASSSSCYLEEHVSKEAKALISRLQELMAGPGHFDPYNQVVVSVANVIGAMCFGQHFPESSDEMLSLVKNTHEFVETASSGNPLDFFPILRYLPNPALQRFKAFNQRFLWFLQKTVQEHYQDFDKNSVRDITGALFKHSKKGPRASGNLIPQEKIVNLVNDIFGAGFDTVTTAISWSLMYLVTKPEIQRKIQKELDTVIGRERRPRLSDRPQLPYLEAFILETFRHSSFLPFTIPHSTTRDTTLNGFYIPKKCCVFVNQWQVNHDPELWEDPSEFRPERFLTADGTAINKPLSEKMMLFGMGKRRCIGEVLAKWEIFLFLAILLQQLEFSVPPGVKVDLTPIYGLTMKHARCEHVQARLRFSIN
Conditions: each 20 μM; 0.2 vol % DMSO.

T3 sequence (P08183 whole entry): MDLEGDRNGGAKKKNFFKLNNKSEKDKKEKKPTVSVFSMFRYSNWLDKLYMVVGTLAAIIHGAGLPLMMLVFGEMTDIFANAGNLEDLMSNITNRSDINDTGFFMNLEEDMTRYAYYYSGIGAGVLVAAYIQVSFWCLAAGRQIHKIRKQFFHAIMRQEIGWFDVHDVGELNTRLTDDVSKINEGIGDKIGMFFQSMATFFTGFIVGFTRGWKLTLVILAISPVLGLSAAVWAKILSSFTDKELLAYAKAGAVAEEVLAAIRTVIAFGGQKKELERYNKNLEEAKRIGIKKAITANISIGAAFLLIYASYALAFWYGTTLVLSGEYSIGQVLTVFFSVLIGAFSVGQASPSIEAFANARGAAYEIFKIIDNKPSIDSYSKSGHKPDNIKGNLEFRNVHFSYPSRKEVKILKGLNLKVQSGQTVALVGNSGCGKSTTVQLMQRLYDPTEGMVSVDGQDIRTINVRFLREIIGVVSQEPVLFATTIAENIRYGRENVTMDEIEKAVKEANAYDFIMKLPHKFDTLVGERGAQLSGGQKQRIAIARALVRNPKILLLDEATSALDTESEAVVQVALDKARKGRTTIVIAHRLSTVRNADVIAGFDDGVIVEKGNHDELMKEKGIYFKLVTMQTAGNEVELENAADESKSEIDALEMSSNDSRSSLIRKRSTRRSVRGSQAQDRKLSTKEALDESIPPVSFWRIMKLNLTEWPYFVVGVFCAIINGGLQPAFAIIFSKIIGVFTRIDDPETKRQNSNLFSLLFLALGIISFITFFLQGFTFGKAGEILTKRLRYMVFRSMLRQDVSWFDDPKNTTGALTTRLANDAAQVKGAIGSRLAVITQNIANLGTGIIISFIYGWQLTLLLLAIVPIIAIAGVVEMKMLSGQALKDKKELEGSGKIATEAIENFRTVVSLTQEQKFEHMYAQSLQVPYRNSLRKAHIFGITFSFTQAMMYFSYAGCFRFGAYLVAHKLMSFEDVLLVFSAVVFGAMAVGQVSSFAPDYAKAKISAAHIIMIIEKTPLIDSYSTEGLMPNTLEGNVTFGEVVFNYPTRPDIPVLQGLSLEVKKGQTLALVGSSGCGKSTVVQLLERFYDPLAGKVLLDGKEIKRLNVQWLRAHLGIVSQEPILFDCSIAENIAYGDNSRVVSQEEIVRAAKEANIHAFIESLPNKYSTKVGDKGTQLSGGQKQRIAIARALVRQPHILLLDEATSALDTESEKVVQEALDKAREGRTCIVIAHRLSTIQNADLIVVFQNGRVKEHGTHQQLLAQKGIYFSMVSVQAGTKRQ
Method for CYP1A2: We applied 10 mM stock solutions of mycotoxins (dissolved in DMSO), and the samples (including controls and positive controls) contained uniformly 0.2 vol % DMSO.

Consider `C[C@H]1CCCC(=O)CCC/C=C/c2cc(OS(=O)(=O)O)cc(O)c2C(=O)O1` [Z14S, zearalenone-14-sulfate], for which half-maximal inhibition against BCRP [1] (IC50) was put at 4.4 µM. The inhibition at 10 min, 50 μM on BCRP [1] (LY 10 μM) is greater than 90%. The “effect on MRP2-dependent transport of CDCF” value at human MRP2 (0–50 μM) was “weak inhibitory effect”. Further, the “effect on MDR1 ATPase activity” value on MDR1 is given as “did not modify”. Moreover, the “effect on BCRP-dependent ATPase activity” value on BCRP [2] is reported as “moderate increase”. For the same compound, the “inhibition of CYP1A2 activity” value at CYP1A2 was “did not influence”.

As to `C[C@H]1CCCC(=O)CCC/C=C/c2cc(O)cc(O)c2C(=O)O1` [ZEN, Zearalenone], the IC50 against BCRP [1] was determined as 2.6 µM. Further, the inhibition at 10 min, 50 μM at BCRP [1] (LY 10 μM) was greater than 90%. The “effect on MDR1 ATPase activity” value at MDR1 is recorded as “considerable elevation even at 5 μM concentration”. On BCRP [2] (50 μM), the “effect on basal ATPase activity of BCRP” value is listed as “slight inhibition”. For the same compound, at BCRP [2], the “effect on BCRP-dependent ATPase activity” value was “no relevant impact”.

For the compound `C[C@H]1CCCC(=O)CCC/C=C/c2cc(O[C@@H]3O[C@H](C(=O)O)[C@@H](O)[C@H](O)[C@H]3O)cc(O)c2C(=O)O1` [Z14GA, Zearalenone-14-glucuronide], the “effect on BCRP-driven vesicular uptake of LY” value at BCRP [1] (0–50 μM, LY 10 μM) is “weak inhibitory action”. The IC50 at human MRP2 (Sf9 membrane vesicles, read-out: IC50 for MRP2-mediated CDCF transport) was greater than 10 µM. In addition, on MDR1, the “effect on MDR1 ATPase activity” value was “did not modify”. Further, at BCRP [2], the “effect on BCRP-dependent ATPase activity” value is recorded as “did not affect”. In addition, at CYP1A2, the “inhibition of CYP1A2 activity” value is “no effects”.
